Values belong to the molecule of their own block, whether it stands above or below them.
Tests used:
[1] = target: T1, human β3GalT5 (β1,3-galactosyltransferase 5) (Homo sapiens, UniProt Q9Y2C3); assay: X-ray crystallography; format: binding; settings: Mn2+; donor site; with Gb5 glycan bound
T1 construct: gene B3GALT5; recombinant luminal catalytic domain Phe31-Pro308 (crystallised construct), transmembrane domain removed; N-glycosylated
T1 sequence (Q9Y2C3 31-308): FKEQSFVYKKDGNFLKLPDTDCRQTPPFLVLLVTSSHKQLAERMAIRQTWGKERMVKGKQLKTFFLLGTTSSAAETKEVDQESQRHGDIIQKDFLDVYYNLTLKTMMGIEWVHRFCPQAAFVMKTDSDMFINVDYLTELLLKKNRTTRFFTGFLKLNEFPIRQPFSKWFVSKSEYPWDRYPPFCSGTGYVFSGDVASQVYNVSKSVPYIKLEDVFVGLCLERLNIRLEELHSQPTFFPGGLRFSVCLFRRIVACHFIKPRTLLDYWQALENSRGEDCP

[2] = target: T1, human β3GalT5 (β1,3-galactosyltransferase 5); assay: X-ray crystallography (cocrystallisation); format: binding; settings: Mn2+; donor site; inert donor analogue
[3] = target: T1, human β3GalT5 (β1,3-galactosyltransferase 5); assay: galactosyltransfer kinetics (details in supplement); format: biochemical; settings: acceptor; donor UDP-Gal; crystal structure of the complex also solved
[4] = substrate: COC1O[C@H](CO)[C@H](O)[C@H](O[C@@H]2O[C@H](CO)[C@@H](O)[C@H](O)[C@H]2NC(C)=O)[C@H]1O; assay: as above; format: biochemical, Homo sapiens; settings: acceptor; donor UDP-Gal; crystal structure of the complex also solved
[5] = substrate: CC(=O)N[C@H]1[C@H](O[C@H]2[C@@H](O)[C@@H](CO)O[C@H](O[C@H](C)[C@H](N)C(=O)O)[C@@H]2NC(C)=O)O[C@H](CO)[C@@H](O)[C@@H]1O; assay: as above; format: biochemical, Homo sapiens; settings: acceptor; donor UDP-Gal; crystal structure of the complex also solved

Molecule: O=c1ccn([C@@H]2O[C@H](COP(=O)(O)OP(=O)(O)O)[C@@H](O)[C@H]2O)c(=O)[nH]1 [UDP]
- X-ray crystallography [1]: β3GalT5 cocrystallized with UDP and soaked with the product Gb5 (SSEA3) glycan

Molecule: O=c1ccn([C@@H]2O[C@H](COP(=O)(O)OP(=O)(O)O[C@H]3O[C@H](CO)[C@H](O)[C@H](O)[C@H]3F)[C@@H](O)[C@H]2O)c(=O)[nH]1 [UDP-2FGal, UDP-2-deoxy-2-fluoro-α-D-galactopyranose]
- X-ray crystallography (cocrystallisation) [2]: employed an inert analog of the sugar nucleotide donor, UDP-2-deoxy-2-fluoro-α-D-galactopyranose (UDP-2FGal) for cocrystallization with β3GalT5

- Km [3]: 2000 µM
Molecule: CC(=O)N[C@H]1[C@H](O[C@H]2[C@@H](O)[C@@H](CO)O[C@H](O[C@@H]3[C@H](O)[C@@H](O)[C@H](O[C@H]4[C@H](O)[C@@H](O)C(O)O[C@@H]4CO)O[C@@H]3CO)[C@@H]2O)O[C@H](CO)[C@H](O)[C@@H]1O (some centres unmarked) [Gb4 glycan]

B1: human β3GalT5 (β1,3-galactosyltransferase 5) (Homo sapiens) (protein)
chain: T1 sequence (Q9Y2C3 31-308)
notes: recombinant luminal catalytic domain Phe31-Pro308 (crystallised construct), transmembrane domain removed; N-glycosylated
- Km [4]: 500 µM
- Km [5]: 750 µM

— publication PMC11969544, “Structure-Based Mechanism and Specificity of Human Galactosyltransferase β3GalT5” (Journal of the American Chemical Society, 2025)
